US10988457B2, “TLR inhibitors” (Insilico Medicine IP Limited, priority 2019, dated 2021)
pIC50: −log10 of the molar value. Where two headings read alike, the source gives them in different places.

Experiments:
TLR7/8 [1] = experiment: TLR7/8 Inhibition Assay IC50 in human PBMC's, cytokine release after CL075 stimulation (Luminex); type: cell-based; conditions: human PBMC's from one donor, CL075 2 μg/mL, 24 hours, eight concentrations 0.01-100 μM
Procedure: (§1) Cryopreserved human PBMC's were drip-thawed. Cells were diluted to the appropriate density (1×10^5 per well) and seeded into 96-well polypropylene plates with 150 μL per well of culture medium (RPMI 1640, 10% heat-inactivated FBS, 1% penicillin/streptomycin, 2 mM L-glutamine) for compound test wells.
Consequently, the final DMSO vehicle concentration in the assay was from 1 to 0.5%.
Than plates were centrifuged at 200×g for 10 minutes. […] Cytokine levels in each sample were determined using Luminex methodology, per the manufacturer's protocol.
The interpolated data were then normalized to the vehicle or unstimulated control.
Outlier calculation was performed using the Grubbs maximum normed residual test.
Eight test compounds were evaluated for their ability to inhibit the TLR7/8 in PBMC's from one human donor following incubation of 24 hours.

TLR7/8 [2] = conditions: reference compound 100 nM, CL075 2 μg/mL, human PBMC's, 24 hours
Procedure: Namely, in the present experiment their ability was evaluated to inhibit TLR7/8 in human PBMC's, as measured by the release of specific cytokines. The following cytokines were measured for a complete cytokine response profile (no dilution of samples): IL-1β, IL-6, IL-12p40, TNFα and IFNα.
Levels of each cytokine induction were interpolated from standard curves using a 5-parameter non-linear regression analysis, where y=(A+((B−A)/(1+(((B−E)/(E−A))*((x/C)^D))))). The interpolated data were then normalized to the vehicle control. Percent of control (PoC) was also calculated using the formula, PoC=(test sample/positive vehicle control)×100.
as §1, with “Fetal Bovine Serum (FBS),” for “FBS,”, “wells. For the control wells, cells (1×10^5 per well) were plated in 150 μL per well of culture medium.” for “wells.”
Cells were incubated at 37° C., 5% CO2 for 1 hour prior to the addition of test compounds or controls.
Test compounds were solubilized in DMSO to make 20× stock solutions, then diluted further with cell culture medium.
Test compounds were added to the PBMC's in volumes of 10 μL and incubated for 1 hour at 37° C., 5% CO2. Compounds were tested in duplicates at final assay concentrations of 10 μM.
Plates were incubated at 37° C., 5% CO2 for 24 hours. Plates were centrifuged at 200×g for 10 minutes. Cell culture supernatants were collected and stored at −80° C. until needed for analysis.
Harvested cell culture supernatants were measured for IL-1β, IL-6, IL-12p40, TNFα and IFNα release to assess dual TLR7/8 inhibition.

[3] = read-out: IC50 levels for test compounds, IFNα
[4] = read-out: IC50 levels for test compounds, IL-1β
[5] = read-out: IC50 levels for test compounds, L-6
[6] = read-out: IC50 levels for test compounds, L-12p40
[7] = read-out: IC50 levels for test compounds, TNFα

SMILES: N#Cc1ccc(N2CCCC(C(=O)NCCN3CCc4ccccc43)C2)c(F)c1 (stereo not drawn) [Compound 15]
- pIC50 (TLR7/8 [1]; [3]): < 4.70
- pIC50 (TLR7/8 [1]; [4]): ≥ 5.00
- pIC50 (TLR7/8 [1]; [5]): < 4.70
- pIC50 (TLR7/8 [1]; [6]): 4.70 to 5.00
- pIC50 (TLR7/8 [1]; [7]): < 4.70

SMILES: COc1ccc2c(c1)CCN(CCNC(=O)C1CCN(c3ccc(C(F)(F)F)cn3)CC1)C2 [Compound 22, N-(2-(6-methoxy-3,4-dihydroisoquinolin-2(19)-yl)ethyl)-1-(5-(trifluoromethyl)pyridin-2-yl)piperidine-4-carboxamide]
- pIC50 (TLR7/8 [1]; [3]): ≥ 5.00
- pIC50 (TLR7/8 [1]; [4]): < 4.70
- pIC50 (TLR7/8 [1]; [5]): < 4.70
- pIC50 (TLR7/8 [1]; [6]): < 4.70
- pIC50 (TLR7/8 [1]; [7]): < 4.70

SMILES: COc1ccc2c(c1)CCN(CCNC(=O)C1CCCN(c3ccc(C#N)cc3)C1)C2 (stereo not drawn) [Compound 24]
- pIC50 (TLR7/8 [1]; [3]): ≥ 5.00
- pIC50 (TLR7/8 [1]; [4]): < 4.70
- pIC50 (TLR7/8 [1]; [5]): < 4.70
- pIC50 (TLR7/8 [1]; [6]): 4.70 to 5.00
- pIC50 (TLR7/8 [1]; [7]): < 4.70

SMILES: COc1ccc2c(c1)CCN(CCNC(=O)C1CCCN(c3ccc(C#N)cc3F)C1)C2 (stereo not drawn) [Compound 25]
- pIC50 (TLR7/8 [1]; [3]): ≥ 5.00
- pIC50 (TLR7/8 [1]; [4]): < 4.70
- pIC50 (TLR7/8 [1]; [5]): ≥ 5.00
- pIC50 (TLR7/8 [1]; [6]): 4.70 to 5.00
- pIC50 (TLR7/8 [1]; [7]): < 4.70

SMILES: COc1ccc2c(c1)CCN(CCCNC(=O)C1CCN(c3ccc(C#N)cc3)CC1)C2 [Compound 26]
- pIC50 (TLR7/8 [1]; [3]): ≥ 5.00
- pIC50 (TLR7/8 [1]; [4]): < 4.70
- pIC50 (TLR7/8 [1]; [5]): < 4.70
- pIC50 (TLR7/8 [1]; [6]): 4.70 to 5.00
- pIC50 (TLR7/8 [1]; [7]): ≥ 5.00

SMILES: C[C@@H]1C[C@H]2[C@@H]3CCC4=CC(=O)C=C[C@]4(C)[C@@]3(F)[C@@H](O)C[C@]2(C)[C@@]1(O)C(=O)CO [Dexamethasone, dexamethasone]
- TLR7/8 Inhibition, IFNα (POC %) (TLR7/8 [2]): 26.1%
- TLR7/8 Inhibition, IL-1β (POC %) (TLR7/8 [2]): 26.8%
- TLR7/8 Inhibition, IL-6 (POC %) (TLR7/8 [2]): 34.7%
- TLR7/8 Inhibition, IL-12p40 (POC %) (TLR7/8 [2]): 34.2%
- TLR7/8 Inhibition, TNFα (POC %) (TLR7/8 [2]): 95.2%
